Data published in US20260207717A1, “METHODS FOR TREATING INFANTILE-ONSET POMPE DISEASE IN PEDIATRIC PATIENTS” (Amicus Therapeutics, Inc., priority 2022, published 2026).
Read-outs that look alike come from different tables or passages of the source. One block for each compound: values may come before it.

Experiments:
clinical = details: human, in vivo
Protocol: At 10Y7M of age, the blood of the patient was collected to gather pharmacokinetic (PK) data for their treatment that included weekly administration of 20 mg/kg ATB200 and 130 mg AT2221.
Blood sampling of the patient was conducted to gather pharmacokinetic (PK) data for their treatment that included administration of 25 mg/kg ATB200 and 195 mg AT2221 biweekly.
At 12Y5M of age, the patient has been receiving ATB200 (20 mg/kg) and AT2221 (195 mg) biweekly for 1 year. […] At this time, the PK levels of both ATB200 and AT2221 were taken from the patient.

[1] = Miglustat plasma pharmacokinetics; format: in vivo, human; details: 130 mg to 260 mg
Protocol: At the recommended 260 mg dose, the mean Cmax was approximately 3 mcg/mL and the mean AUC was approximately 25 mcg*hr/mL. The mean time to reach the maximum concentration ranged from 2 hours to 3 hours.

[2] = tested on: single fibers isolated from the white gastrocnemius of Gaa KO mice; experiment: Single fiber analysis (LAMP1/LC3 co-immunofluorescence); format: in vivo
From the text: FIG. 17 depicts co-immunofluorescent staining of LAMP1 (green) (see for example, “B”) and LC3 (red) (see, for example, “A”) in single fibers isolated from the white gastrocnemius of Gaa KO mice treated with a vehicle, alglucosidase alfa, or ATB200. “C” depicts clearance of autophagic debris and absence of enlarged lysosome. A minimum of 30 fibers were examined from each animal.
As a result, a significant portion of muscle fibers analyzed (36-60%) from ATB200-treated mice appeared normal or near-normal.

CIMPR = CIMPR (Homo sapiens, UniProt P11717); experiment: CIMPR affinity chromatography (bound vs unbound rhGAA by GAA activity); format: binding
Chain of CIMPR (P11717 41-2491, species assumed): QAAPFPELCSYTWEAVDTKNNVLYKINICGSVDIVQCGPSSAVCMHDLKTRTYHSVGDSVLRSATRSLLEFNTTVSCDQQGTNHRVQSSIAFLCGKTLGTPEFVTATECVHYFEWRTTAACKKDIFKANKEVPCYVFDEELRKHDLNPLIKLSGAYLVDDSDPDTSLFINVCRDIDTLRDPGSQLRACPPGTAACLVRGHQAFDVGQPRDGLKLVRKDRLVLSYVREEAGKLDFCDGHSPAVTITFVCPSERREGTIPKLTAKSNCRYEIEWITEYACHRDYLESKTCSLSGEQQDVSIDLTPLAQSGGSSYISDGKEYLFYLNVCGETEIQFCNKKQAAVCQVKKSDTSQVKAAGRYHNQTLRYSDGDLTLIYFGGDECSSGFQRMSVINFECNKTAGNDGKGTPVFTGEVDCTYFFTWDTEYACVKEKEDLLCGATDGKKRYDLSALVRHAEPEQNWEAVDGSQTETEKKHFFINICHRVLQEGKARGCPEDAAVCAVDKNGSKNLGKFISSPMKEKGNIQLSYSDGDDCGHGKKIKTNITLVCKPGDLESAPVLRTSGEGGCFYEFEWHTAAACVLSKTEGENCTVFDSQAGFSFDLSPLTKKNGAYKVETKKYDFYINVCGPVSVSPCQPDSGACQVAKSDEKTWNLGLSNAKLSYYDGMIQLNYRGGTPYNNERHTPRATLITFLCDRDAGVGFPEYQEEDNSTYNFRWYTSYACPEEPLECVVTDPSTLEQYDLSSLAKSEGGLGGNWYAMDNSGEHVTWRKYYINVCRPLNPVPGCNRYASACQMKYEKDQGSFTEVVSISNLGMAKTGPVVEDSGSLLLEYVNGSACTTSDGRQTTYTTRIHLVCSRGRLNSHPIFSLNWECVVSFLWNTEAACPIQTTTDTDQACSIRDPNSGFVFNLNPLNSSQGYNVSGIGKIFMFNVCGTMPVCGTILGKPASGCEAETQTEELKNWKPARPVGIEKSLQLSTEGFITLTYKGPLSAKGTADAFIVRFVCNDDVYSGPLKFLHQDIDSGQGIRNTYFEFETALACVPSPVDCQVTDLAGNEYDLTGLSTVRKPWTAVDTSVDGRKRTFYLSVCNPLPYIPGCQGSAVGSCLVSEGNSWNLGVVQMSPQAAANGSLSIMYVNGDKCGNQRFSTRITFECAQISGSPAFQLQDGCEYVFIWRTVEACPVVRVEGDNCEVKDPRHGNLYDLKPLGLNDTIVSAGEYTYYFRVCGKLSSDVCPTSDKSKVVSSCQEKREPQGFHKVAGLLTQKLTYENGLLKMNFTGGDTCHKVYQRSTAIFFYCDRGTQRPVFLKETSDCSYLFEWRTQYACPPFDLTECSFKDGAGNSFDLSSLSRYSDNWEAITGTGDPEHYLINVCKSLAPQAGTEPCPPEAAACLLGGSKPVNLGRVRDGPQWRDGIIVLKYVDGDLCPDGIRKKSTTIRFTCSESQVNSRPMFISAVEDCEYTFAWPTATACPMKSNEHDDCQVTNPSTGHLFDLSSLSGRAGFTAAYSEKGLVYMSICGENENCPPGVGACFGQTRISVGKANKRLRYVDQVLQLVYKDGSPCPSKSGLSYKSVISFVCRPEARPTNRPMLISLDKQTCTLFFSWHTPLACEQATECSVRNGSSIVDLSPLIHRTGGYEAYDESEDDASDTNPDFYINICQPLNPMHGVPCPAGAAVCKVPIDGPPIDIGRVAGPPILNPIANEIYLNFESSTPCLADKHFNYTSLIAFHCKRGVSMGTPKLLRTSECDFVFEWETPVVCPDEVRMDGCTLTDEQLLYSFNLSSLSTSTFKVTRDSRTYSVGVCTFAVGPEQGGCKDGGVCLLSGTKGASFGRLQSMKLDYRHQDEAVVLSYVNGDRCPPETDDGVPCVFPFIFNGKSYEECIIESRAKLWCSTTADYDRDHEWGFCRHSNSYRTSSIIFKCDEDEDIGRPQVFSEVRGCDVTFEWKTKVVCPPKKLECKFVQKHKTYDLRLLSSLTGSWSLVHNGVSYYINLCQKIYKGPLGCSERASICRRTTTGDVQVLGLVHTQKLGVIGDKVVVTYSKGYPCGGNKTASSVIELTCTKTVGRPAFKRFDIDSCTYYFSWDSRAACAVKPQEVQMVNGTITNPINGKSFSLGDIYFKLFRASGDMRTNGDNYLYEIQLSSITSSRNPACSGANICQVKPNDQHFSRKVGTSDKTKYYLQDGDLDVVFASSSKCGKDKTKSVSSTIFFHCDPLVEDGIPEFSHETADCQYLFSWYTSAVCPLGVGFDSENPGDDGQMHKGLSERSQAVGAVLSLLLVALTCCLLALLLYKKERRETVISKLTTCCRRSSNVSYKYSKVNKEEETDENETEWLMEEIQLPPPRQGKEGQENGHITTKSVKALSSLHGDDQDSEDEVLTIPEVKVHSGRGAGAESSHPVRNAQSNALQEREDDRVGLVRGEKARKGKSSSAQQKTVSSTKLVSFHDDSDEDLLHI
From the text: Multiple batches of the rhGAA according to the disclosure were produced in shake flasks and in perfusion bioreactors using CHO cell line GA-ATB200, the product of which is referred to as “ATB200.” Weak anion exchange (“WAX”) liquid chromatography was used to fractionate ATB200 rhGAA according to terminal phosphate and sialic acid. Elution profiles were generated by eluting the ERT with increasing amount of salt. The profiles were monitored by UV (A280 nm).
To evaluate the ability of the conventional rhGAAs in MYOZYME® and LUMIZYME® to interact with the CIMPR, the two conventional rhGAA preparations were injected onto a CIMPR affinity column (which binds rhGAA having M6P groups) and the flow through collected. The bound material was eluted with a free M6 gradient. Fractions were collected in 96-well plate and GAA activity assayed by 4MU-α-glucosidase substrate. The relative amounts of unbound (flow through) and bound (M6P eluted) rhGAA were determined based on GAA activity and reported as the fraction of total enzyme. […] Indeed, only 27% of the rhGAA in MYOZYME® and 22% of the rhGAA in LUMIZYME® contained M6P that can be productive to target it to the CIMPR on muscle cells.

pediatric IOPD patient [3] = tested on: pediatric IOPD patient
pediatric IOPD patient [4] = format: in vivo, human
Protocol: The patient, first-born of unrelated parents […]), was born at 37 weeks by an emergency delivery due to fetal heart failure. At birth, they were resuscitated and admitted to the NICU for invasive ventilatory assistance and circulation support.
Moreover, the patient presented with severe hypotonia, elevated serum CPK (1063 U/L) and BNP ([…], nv 0-100).
At 3 days of life, an extended newborn screening resulted positive for Pompe Disease (GAA activity in DBS 0.40 μM/L, nv>3). uGlc4 was elevated (71.2 mmol/mol creatinine, nv <16.3).
At 5 days of life, the patient was treated with alglucosidase alfa (Myozyme®). Simultaneously, an immunomodulation protocol with rituximab, ev immunoglobulins and methotrexate was started. In addition, an appropriate therapy for the heart failure was started (betablocker, diuretics, ACE inhibitor).
At 2.5 years of life, they started a compassionate use/EAP therapy that combined a new ERT (cipaglucosidase 30 mg/kg/week) with an enzyme stabilizer (miglustat 115 mg) (ATB200-15 Program, Amicus Therapeutics), with clinical benefit.

[5] = tested on: pediatric patient with infantile Pompe disease; experiment: Example 16: pediatric IOPD patient switched from Myozyme to ATB200/AT2221; format: in vivo, human
From the text: A patient with severe infantile Pompe disease presented. The patient underwent a comprehensive physical examination, measurement of GAA enzyme activity, genetic testing of the GAA gene and muscle biopsy to establish the diagnosis.
The patient received the high-dose enzyme replacement therapy with Myozyme after diagnosis. The patient responded very poorly to therapy. Due to rapidly progressing Pompe disease and inadequate response to therapy, the patient's survival was at risk. For the patient, the opportunity arose to receive the new ATB200/AT2221 ERT via a compassionate use/Expanded Access Program (EAP).
The index patient has regular measurement of the urinary Glc4-levels since the change of the ERT to ATB200. The Glc4-levels were determined by an established method from the Duke University. The analysis of Glc4 is standardized as a butyl-4-aminobenzoate derivative using [^13C6] Glc4 as the internal standard (IS). The measurement is performed as ultra-performance liquid chromatography-tandem mass spectrometry (UPLC-MS/MS). The Glc4-values are then normalized to creatinine.
The patient presented with IOPD at 6 months and was started on the standard dose of Myozyme (20 mg/kg/bi-weekly). Due to the inadequate response to therapy, the dose was doubled just one month after the start of therapy in form of a weekly administration of Myozyme. […] But the cardiological situation deteriorated progressively.
Therefore, just three months after initiation of therapy, the dose was again doubled to 40 mg/kg/weekly, so the patient received a total of four times the standard dose. With the intensification of ERT and cardiac therapy, the patient's condition initially stabilized. Nevertheless, over the next few months, the patient's general condition steadily deteriorated, and the patient decompensated, especially respiratory.
The patient was switched from Myozyme to ATB200/AT2221 after eight months of insufficient Myozyme therapy response. The patient was […] at the time of the therapy switch. The new therapy (via EAP) was initiated with the oral administration of 30 mg premedication AT2221 (Miglustat) one hour prior to enzyme administration. ATB200 was administered at a bi-weekly interval at a dosage of 20 mg/kg. In the further course of treatment, the dosage of premedication and ERT was repeatedly adjusted and optimized (see Table 22). Some actual dosages in Table 22 (e.g., 37 mg/kg and 34.5 mg/kg at 32 and 38 months, respectively) varied from the target dose (e.g., 30 mg/kg) to avoid waste of extra material left in vials.
The Gross Motor Function Measure 66 (GMFM 66) is used to quantify a patients' motor skills. The GMFM 66 is a worldwide standardized test developed and validated for children with cerebral palsy to measure the development of gross motor function over time. During testing 66 items are examined and a score from 0 to 100 points is possible.

[6] = age ~1 week, Myozyme double dose 40 mg/kg q2wk
[7] = after new immunomodulation cycle, on Myozyme
[8] = worsening with high antibody titer, on Myozyme

AUC relative to adult percentiles (clinical): below the adult 10th percentile | Cmax relative to adult percentiles (clinical): within the adult 10th-90th percentile | AUC (clinical; AT2221 AUC): 16100 to 24600 ng·h/mL | Cmax (clinical; AT2221 Cmax): 1800 to 3130 ng/mL | dose proportionality of AUC and Cmax [1]: linear pharmacokinetics
Compound: CCCCN1C[C@H](O)[C@@H](O)[C@H](O)[C@H]1CO [miglustat, (2R,3R,4R,5S)-1-butyl-2-(hydroxymethyl)piperidine-3,4,5-triol, reference compound]

rhGAA that binds to the CIMPR (contains M6P) (CIMPR; fraction of total enzyme by GAA activity): 27% | rhGAA that did not bind to the CIMPR (CIMPR; fraction of total enzyme by GAA activity (FIG. 9A, 9B)): 73%
Compound: MYOZYME®: conventional rhGAA product containing alglucosidase alfa
lysosome size and autophagic buildup compared to vehicle-treated mice [2]: did not show any significant difference | CK (pediatric IOPD patient [3]; Myozyme 50 mg/kg q2wk): 2514-2722 U/L | CK (pediatric IOPD patient [3]; Myozyme 60 mg/kg q2wk): 3143-3625 U/L | LVEF (pediatric IOPD patient [3]; Myozyme 60 mg/kg q2wk, 2 D): 70.5% | LVMI (pediatric IOPD patient [3]; Myozyme 60 mg/kg q2wk, 2 D): 26.2 g/m^2 | CK (pediatric IOPD patient [3]; Myozyme 30 then 40 mg/kg qwk): 2603 U/L | Pro-BNP (pediatric IOPD patient [3]; Myozyme 30 then 40 mg/kg qwk): 401.5 pg/mL | CK (pediatric IOPD patient [3]; [6]): 880 U/L | Glc4 (pediatric IOPD patient [3]; [6]): 41.88 mmol/mol CRE | Pro-BNP (pediatric IOPD patient [3]; [6]): 10169 pg/mL | LVMI (pediatric IOPD patient [3]; age ~1 week, Myozyme double dose 40 mg/kg q2wk, M-mode): 147 g/m^2 | CK (pediatric IOPD patient [3]; change to ATB200 20 mg/kg q2w): 1444 U/L | reactions on ERT (pediatric IOPD patient [3]; human, in vivo): skin rash, dyspnea, a cough and a pale-like complexion | CPK (pediatric IOPD patient [4]; [7]): 4,728 U/L | EF (pediatric IOPD patient [4]; [7]): 48% | LVMI (pediatric IOPD patient [4]; [7]): 118 g/m2 | uGlc4 (pediatric IOPD patient [4]; [7]): 35 mmol/mol crea | CPK (pediatric IOPD patient [4]; on Myozyme): 1877 u/L | EF (pediatric IOPD patient [4]; on Myozyme): 50% | uGlc4 (pediatric IOPD patient [4]; on Myozyme): 20.2 mmol/mol crea | LVMI (pediatric IOPD patient [4]; on Myozyme since day 5): 116.6 g/m2 | BNP (pediatric IOPD patient [4]; [8]): 237 U/L | EF (pediatric IOPD patient [4]; [8]): 50% | LVMI (pediatric IOPD patient [4]; [8]): 229 g/m2 | serum CPK, maximum (pediatric IOPD patient [4]; [8]): 6,795 U/L | uGlc4, maximum (pediatric IOPD patient [4]; [8]): 50 mmol/mol creatinine | motor function ([5]; 20 mg/kg/weekly): slight motor improvements | response to therapy ([5]; fourfold dose of ERT (40 mg/kg/weekly)): very poor
